The text below walks through data of patent publication US5834482A, “Heterocyclic chemistry” (Novo Nordisk A/S, priority 1995, dated 1998).

Structures can show the parent of a compound that is named as a salt. Where two headings read alike, the source gives them in different places.

Assay [1] concerns the target T1, GABA uptake carrier (Rattus norvegicus, UniProt P31647).
T1 construct: A crude membrane preparation was prepared from selected brain areas; from tissue
T1 sequence (P31647 1-627): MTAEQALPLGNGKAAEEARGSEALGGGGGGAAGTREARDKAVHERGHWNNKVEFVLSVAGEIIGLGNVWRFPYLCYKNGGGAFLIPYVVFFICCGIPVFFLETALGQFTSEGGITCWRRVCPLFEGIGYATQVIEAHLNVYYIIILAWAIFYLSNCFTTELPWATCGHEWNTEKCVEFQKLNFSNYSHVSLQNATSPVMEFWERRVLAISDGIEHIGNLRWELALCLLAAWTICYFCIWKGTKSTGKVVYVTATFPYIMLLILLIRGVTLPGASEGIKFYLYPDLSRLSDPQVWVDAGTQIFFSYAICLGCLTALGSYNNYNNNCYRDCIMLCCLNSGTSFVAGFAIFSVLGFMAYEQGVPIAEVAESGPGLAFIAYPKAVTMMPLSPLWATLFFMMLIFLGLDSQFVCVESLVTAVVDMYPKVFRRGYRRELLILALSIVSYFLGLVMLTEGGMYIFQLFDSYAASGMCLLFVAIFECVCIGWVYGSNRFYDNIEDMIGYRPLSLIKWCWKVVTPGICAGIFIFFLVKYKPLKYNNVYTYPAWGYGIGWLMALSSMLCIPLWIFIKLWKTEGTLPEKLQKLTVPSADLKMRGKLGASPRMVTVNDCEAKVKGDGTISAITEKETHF
Nature of the assay: 3H-GABA uptake in crude membrane preparation from selected brain areas (in presence of NNC 05-0711). It is filed as biochemical. As to the method:
^3 H-GABA uptake was measured by a modification of the method of Fjalland et al., (1978). A crude membrane preparation was prepared from selected brain areas by homogenization in 20 ml of ice-cold 0.32M sucrose with a hand driven teflon/glass Potter-Elvehjem homogenizer. homogenate was centrifuged at 4° C. for 10 min. at 1000×g, and the pellet was discarded. The supernatant was recentrifuged at 4° C. for 20 min. at 20.000×g. The pellet was then homogenized in 50 volumes 0.32M sucrose. To 300 μl uptake-buffer ([…], 15.3 mM KCl, 6.67 mM MgSO4, 3.83 mM CaCl2, 16.67 mM glucose, 66.67 mM Tris, pH 7.5 at 30° C.) was added 1-(2-(((diphenylmethylene)amino)oxy)ethyl)-1,2,5,6-tetrahydro-3-pyridinecarboxylic acid (NNC 05-0711) (1 mM final concentration), 100 μl test substance and 50 μl tissue suspension. The sample were mixed and incubated at 30° C. for 8 min. Then ^3 H-GABA (0.9 nM final concentration) and unlabelled GABA (25 nM final concentration) was added, and the incubation was continued for an additional 8 min. The reaction was terminated by rapid filtration through Whatman GF/F glass fiber filters under vacuum. The filters were then washed twice in 10 ml of ice-cold isotonic saline, and the tritium trapped on the filters was quantified by conventional scintillation spectroscopy. Non-GABA uptake carrier mediated uptake of ^3 H-GABA was determined in the presence of […].

The subject of assay [2] is GABA uptake. To be noted: cited from earlier work.
Assay [3] deals with GAT-1. To be noted: cloned GAT-1; cited from earlier work.
The subject of assay [4] is GABA uptake. Particulars: into presynaptic nerve terminals and glial cells; cited from earlier work.
Where [5] appears, read: in vitro, crude brain membrane preparation, 1 mM NNC 05-0711, 30° C., 8 min, 0.9 nM 3H-GABA, 25 nM unlabelled GABA, read-out: IC50 (nM) in vitro, Non-GABA uptake carrier mediated uptake of 3H-GABA.

For `C=CCN(CC=C)c1ccc2c(c1)c1cc(-c3nc(CC)no3)ncc1n2CCCN1CCC(O)(c2ccccc2)CC1` [Compound 20, 1-(3-(3-(3-Ethyl-1,2,4-oxadiazol-5-yl)-6-dipropenylamino-9H-β-carbolin-9-yl)-1-propyl-4-phenylpiperidin-4-ol hydrochloride], the IC50 (commonly the concentration needed to halve the response being measured) in assay [1] (setting [5]) is 5380 nM.

As for `CCc1noc(-c2cc3c4cc(N(C)C)ccc4n(CCCN4CCC(O)(c5ccccc5)CC4)c3cn2)n1` [Compound 24], the IC50 in assay [1] (setting [5]) worked out at 4690 nM.

In the case of `OC1(c2ccccc2)CCN(CCCn2c3ccccc3c3cc(-c4nc(-c5ccccc5)no4)ncc32)CC1` [Compound 10, 1-(3-(3-(3-Phenyl-1,2,4-oxadiazol-5-yl)-9H-β-carbolin-9-yl)-1-propyl)-4-phenylpiperidin-4-ol hydrochloride], the IC50 in assay [1] came out at 1440 nM.

Regarding `O=C(O)C1CCCN(CCC=C(c2ccccc2)c2cccs2)C1` (centres unmarked) [SK&F 100604J, N-(4-phenyl-4-(2-thienyl)-3-buten-1-yl)nipecotic acid], in assay [2], the “inhibition of GABA uptake, oral activity” value was “orally active inhibitors of GABA uptake”.

Regarding `O=C(O)CC1CCN(CCC=C(c2ccccc2)c2ccccc2)C1` (stereo not drawn) [SK&F 100561, N-(4,4-diphenyl-3-buten-1-yl)-homo-β-proline], the “inhibition of GABA uptake, oral activity” value in assay [2] is given as “orally active inhibitors of GABA uptake”.

In the case of `Cc1nc(-c2cc3c4ccccc4n(CCCN4CCC(O)(c5ccccc5)CC4)c3cn2)no1` [Compound 28, 1-(3-(5-Methyl-1,2,4-oxadiazol-3-yl)-β-carbolin-9-yl)-1-propyl)-4-phenylpiperidin-4-ol hydrochloride], the IC50 in assay [1] (setting [5]) was 1240 nM.

For the molecule `O=C(O)C1=CCCN(CCC=C(c2ccccc2)c2ccccc2)C1` [SK&F 100330A, N-(4,4-diphenyl-3-buten-1-yl)guvacine], the “inhibition of GABA uptake, oral activity” value in assay [2] is recorded as “orally active inhibitors of GABA uptake”.

With `OC1(c2ccccc2)CCN(CCCn2c3ccccc3c3cc(-c4nc(C5CC5)no4)ncc32)CC1` [Compound 7, 1-(3-(3-(3-Cyclopropyl-1,2,4-oxadiazol-5-yl)-9H-β-carbolin-9-yl)-1-propyl)-4-phenylpiperidin-4-ol hydrochloride], the IC50 in assay [1] is 1090 nM.

Consider `CCc1noc(-c2cc3c4ccccc4n(CCCN4CCC(O)(c5ccccc5)CC4)c3cn2)n1` [Compound 4, 1-(3-(3-(3-Ethyl-1,2,4-oxadiazol-5-yl)-9H-β-carbolin-9-yl)-1-propyl)-4-phenylpiperidin-4-ol], for which the IC50 in assay [1] (setting [5]) was found to be 932 nM.

With `CCOC(=O)c1cc2c(cn1)[nH]c1ccc([N+](=O)[O-])cc12` [Compound 15, 6-Nitro-9H-β-carboline-3-carboxylic acid ethyl ester], in assay [1], the half-maximal inhibitory concentration (IC50) came out at 6380 nM.

For the molecule `O=C(O)C1CCCN(CCC=C(c2ccccc2)c2ccccc2)C1` (centres unmarked) [SK&F 89976A, N-(4,4-diphenyl-3-buten-1-yl)nipecotic acid], in assay [2], the “inhibition of GABA uptake, oral activity” value is “orally active inhibitors of GABA uptake”.

For `Cc1noc(-c2cc3c4ccccc4n(CCCN4CCC(O)(c5ccccc5)CC4)c3cn2)n1` [Compound 26, 1-(3-(3-Methyl-1,2,4-oxadiazol-5-yl)-β-carbolin-9-yl)-1-propyl)-4-phenylpiperidin-4-ol hydrochloride], the IC50 in assay [1] (setting [5]) stood at 1640 nM.

For the molecule `O=C(O)C1CCCNC1` (centres unmarked) [nipecotic acid, 3-piperidinecarboxylic acid], in assay [3], the “sensitivity of GAT-1” value is “high sensitivity”. For the same molecule, the “inhibition of GABA uptake from the synaptic cleft” value in assay [4] was “potent inhibitor of GABA uptake”.
